{"source": "paper PMC6844310", "about": "“Deletion of glutaredoxin promotes oxidative tolerance and intracellular infection in Listeria monocytogenes” (Virulence, 2019)", "molecular_target": "T1, Grx (Lmo2344) (Listeria monocytogenes, UniProt Q8Y4T8)", "T1 construct": "CHYC active motif", "T1 sequence (Q8Y4T8 1-88)": "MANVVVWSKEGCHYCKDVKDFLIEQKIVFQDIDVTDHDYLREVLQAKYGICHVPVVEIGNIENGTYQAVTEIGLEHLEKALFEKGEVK", "assay": "insulin disulfide reduction, turbidity at […] nm", "type": "biochemical", "details": "electron donor, 1 mM DTT; 0.15 mM human insulin, pH 7.0, 2 mM EDTA; DTT also reduces insulin non-enzymatically", "data": [{"smiles": "OC(CS)C(O)CS", "note": "(stereo not shown) [DTT]", "values": [{"measurement": "insulin disulfide reduction, turbidity at 650 nm", "value": "Using DTT as an electron donor, the recombinant Lmo2344 is able to catalyze the reduction"}]}]}
